Results reported in PMC6540285, “Evaluation of Protein Kinase Inhibitors with PLK4 Cross-Over Potential in a Pre-Clinical Model of Cancer” (International Journal of Molecular Sciences, 2019).

Columns and labels:
STK38L (NDR2) = STK38L (NDR2) (Homo sapiens, UniProt Q9Y2H1); test: SelectScreen kinase profiling, LanthaScreen binding
Description: (§1) Kinase Technology % Inhibition Avg Kinase Technology % Inhibition Avg […]

VRK2 = VRK2 (Homo sapiens, UniProt Q86Y07); test: as above; settings: VRK2, 10 µM
Description: as §1

ULK2 = ULK2 (Homo sapiens, UniProt Q8IYT8); test: as above; settings: ULK2, 10 µM
ULK2, sequence (Q8IYT8 whole entry): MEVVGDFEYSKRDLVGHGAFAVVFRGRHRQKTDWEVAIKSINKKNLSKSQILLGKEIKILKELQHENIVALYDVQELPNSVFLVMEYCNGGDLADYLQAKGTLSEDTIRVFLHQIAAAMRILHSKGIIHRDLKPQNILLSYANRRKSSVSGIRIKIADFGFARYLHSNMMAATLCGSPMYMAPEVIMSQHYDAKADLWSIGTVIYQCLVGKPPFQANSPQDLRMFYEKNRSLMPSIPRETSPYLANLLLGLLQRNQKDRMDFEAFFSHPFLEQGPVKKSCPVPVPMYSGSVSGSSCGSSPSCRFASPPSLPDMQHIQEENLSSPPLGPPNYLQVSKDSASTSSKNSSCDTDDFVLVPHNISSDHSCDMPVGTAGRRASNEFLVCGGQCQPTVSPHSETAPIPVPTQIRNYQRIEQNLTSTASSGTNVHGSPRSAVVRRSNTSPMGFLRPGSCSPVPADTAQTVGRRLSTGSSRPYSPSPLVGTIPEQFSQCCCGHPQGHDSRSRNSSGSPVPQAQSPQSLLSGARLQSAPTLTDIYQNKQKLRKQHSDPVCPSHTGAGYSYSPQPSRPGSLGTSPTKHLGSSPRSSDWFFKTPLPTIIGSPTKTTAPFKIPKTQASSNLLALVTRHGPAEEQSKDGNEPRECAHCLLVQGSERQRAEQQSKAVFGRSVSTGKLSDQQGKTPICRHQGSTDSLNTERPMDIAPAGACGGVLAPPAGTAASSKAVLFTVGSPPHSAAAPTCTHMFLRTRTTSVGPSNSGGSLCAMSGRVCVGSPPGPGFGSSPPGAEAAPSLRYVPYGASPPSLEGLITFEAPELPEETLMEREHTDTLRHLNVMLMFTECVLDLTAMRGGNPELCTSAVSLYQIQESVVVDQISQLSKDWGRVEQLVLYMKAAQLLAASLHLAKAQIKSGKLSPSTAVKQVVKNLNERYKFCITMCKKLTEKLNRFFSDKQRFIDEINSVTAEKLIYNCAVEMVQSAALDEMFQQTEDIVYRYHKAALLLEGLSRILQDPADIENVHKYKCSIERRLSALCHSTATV
Description: as §1

STK33 = STK33 (Homo sapiens, UniProt Q9BYT3); test: as above; settings: STK33, 10 µM
Description: as §1

TAOK3 (JIK) = TAOK3 (JIK) (Homo sapiens, UniProt Q9H2K8); test: as above
Description: as §1

ZAK = ZAK (Homo sapiens, UniProt Q9NYL2); test: as above
Description: as §1

TNK2 (ACK) = TNK2 (ACK) (Homo sapiens, UniProt Q07912); test: as above
Description: as §1

STK32C (YANK3) = STK32C (YANK3) (Homo sapiens, UniProt Q86UX6); test: as above
Description: as §1

WNK1 = WNK1 (Homo sapiens, UniProt Q9H4A3); test: as above; settings: WNK1, 10 µM
Description: as §1

STK39 (STLK3) = STK39 (STLK3) (Homo sapiens, UniProt Q9UEW8); test: as above
Description: as §1

WNK3 = WNK3 (Homo sapiens, UniProt Q9BYP7); test: as above; settings: WNK3, 10 µM
WNK3, sequence (Q9BYP7 whole entry): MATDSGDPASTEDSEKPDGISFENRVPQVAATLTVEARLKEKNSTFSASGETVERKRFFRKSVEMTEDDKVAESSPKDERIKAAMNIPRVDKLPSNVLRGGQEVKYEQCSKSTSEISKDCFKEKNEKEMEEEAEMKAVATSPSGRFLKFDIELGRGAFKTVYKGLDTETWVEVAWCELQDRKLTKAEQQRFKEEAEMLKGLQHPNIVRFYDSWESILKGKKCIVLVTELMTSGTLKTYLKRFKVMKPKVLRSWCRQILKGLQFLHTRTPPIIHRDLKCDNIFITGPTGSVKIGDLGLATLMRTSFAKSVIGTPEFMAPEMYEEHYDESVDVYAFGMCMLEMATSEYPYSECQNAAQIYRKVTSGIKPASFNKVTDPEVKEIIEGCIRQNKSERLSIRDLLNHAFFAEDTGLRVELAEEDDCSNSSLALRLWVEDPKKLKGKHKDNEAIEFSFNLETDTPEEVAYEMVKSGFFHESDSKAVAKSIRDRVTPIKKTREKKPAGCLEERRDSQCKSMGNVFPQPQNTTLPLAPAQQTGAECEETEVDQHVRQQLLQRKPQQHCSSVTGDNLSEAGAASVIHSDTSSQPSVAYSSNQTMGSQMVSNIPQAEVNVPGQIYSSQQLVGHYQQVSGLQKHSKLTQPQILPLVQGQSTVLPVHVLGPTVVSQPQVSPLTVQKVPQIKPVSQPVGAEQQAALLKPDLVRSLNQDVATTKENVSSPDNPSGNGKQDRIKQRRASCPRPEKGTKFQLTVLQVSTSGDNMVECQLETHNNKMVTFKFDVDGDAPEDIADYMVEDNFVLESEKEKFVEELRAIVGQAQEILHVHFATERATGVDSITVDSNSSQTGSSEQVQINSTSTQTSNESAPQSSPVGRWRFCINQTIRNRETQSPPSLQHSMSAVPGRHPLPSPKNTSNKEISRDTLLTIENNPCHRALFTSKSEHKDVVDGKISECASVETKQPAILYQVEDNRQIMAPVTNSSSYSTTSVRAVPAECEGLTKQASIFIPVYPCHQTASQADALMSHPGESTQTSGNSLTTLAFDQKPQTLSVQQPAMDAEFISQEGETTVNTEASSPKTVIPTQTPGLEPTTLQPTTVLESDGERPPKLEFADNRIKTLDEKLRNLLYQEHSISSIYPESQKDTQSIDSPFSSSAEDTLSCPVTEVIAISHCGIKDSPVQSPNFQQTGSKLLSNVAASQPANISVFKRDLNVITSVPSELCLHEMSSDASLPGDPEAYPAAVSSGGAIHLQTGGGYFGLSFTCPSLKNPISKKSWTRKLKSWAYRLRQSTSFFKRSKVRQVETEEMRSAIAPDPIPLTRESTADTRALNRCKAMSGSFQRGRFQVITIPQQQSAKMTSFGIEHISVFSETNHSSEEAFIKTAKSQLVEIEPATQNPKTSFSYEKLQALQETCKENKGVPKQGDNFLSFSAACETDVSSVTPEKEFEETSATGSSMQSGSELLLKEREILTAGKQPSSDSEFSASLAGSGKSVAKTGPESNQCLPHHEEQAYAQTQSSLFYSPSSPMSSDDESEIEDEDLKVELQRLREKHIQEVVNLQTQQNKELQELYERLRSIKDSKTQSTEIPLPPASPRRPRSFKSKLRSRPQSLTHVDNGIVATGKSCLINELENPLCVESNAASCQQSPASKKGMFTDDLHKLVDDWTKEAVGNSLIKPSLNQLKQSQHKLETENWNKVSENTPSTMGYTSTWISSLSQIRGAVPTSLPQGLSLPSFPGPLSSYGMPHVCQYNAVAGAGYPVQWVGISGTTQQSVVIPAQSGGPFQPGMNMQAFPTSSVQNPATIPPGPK
Description: as §1

TTK = TTK (Homo sapiens, UniProt P33981); test: as above
Description: as §1

TGFBR2 = TGFBR2 (Homo sapiens, UniProt P37173); test: as above; settings: TGFBR2, 10 µM
TGFBR2, sequence (P37173 23-567): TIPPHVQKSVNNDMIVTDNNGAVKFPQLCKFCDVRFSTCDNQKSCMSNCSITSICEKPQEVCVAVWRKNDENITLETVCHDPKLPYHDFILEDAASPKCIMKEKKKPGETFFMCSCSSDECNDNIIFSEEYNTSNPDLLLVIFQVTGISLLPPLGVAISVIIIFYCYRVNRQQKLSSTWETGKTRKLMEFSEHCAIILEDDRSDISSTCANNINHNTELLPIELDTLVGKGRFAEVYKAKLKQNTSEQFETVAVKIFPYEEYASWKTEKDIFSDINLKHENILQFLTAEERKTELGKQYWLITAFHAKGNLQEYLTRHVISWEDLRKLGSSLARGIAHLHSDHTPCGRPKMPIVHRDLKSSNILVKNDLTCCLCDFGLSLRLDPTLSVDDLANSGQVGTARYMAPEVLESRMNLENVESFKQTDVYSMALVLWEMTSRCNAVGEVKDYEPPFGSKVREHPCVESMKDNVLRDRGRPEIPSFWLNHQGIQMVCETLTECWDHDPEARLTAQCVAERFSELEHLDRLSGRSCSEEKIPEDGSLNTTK
Description: as §1

TLK2 = TLK2 (Homo sapiens, UniProt Q86UE8); test: as above; settings: TLK2, 10 µM
Description: as §1

TEK (TIE2) R849W = TEK (TIE2) R849W (Homo sapiens, UniProt Q02763, R849W); test: as above
Description: as §1

WNK2 = WNK2 (Homo sapiens, UniProt Q9Y3S1); test: as above; settings: WNK2, 10 µM
Description: as §1

TEC = TEC (Homo sapiens, UniProt P42680); test: as above
Description: as §1

MAP3K3 (MEKK3) = MAP3K3 (MEKK3) (Homo sapiens, UniProt Q99759); test: as above
MAP4K2 (GCK) = MAP4K2 (GCK) (Homo sapiens, UniProt Q12851); test: SelectScreen kinase profiling, ZLYTE; format: biochemical
RPS6KB2 (p70S6Kb) = RPS6KB2 (p70S6Kb) (Homo sapiens, UniProt Q9UBS0); test: SelectScreen kinase profiling, ZLYTE; format: biochemical
NIM1K = NIM1K (Homo sapiens, UniProt Q8IY84); test: SelectScreen kinase profiling, ZLYTE; format: biochemical
NIM1K, sequence (Q8IY84 whole entry): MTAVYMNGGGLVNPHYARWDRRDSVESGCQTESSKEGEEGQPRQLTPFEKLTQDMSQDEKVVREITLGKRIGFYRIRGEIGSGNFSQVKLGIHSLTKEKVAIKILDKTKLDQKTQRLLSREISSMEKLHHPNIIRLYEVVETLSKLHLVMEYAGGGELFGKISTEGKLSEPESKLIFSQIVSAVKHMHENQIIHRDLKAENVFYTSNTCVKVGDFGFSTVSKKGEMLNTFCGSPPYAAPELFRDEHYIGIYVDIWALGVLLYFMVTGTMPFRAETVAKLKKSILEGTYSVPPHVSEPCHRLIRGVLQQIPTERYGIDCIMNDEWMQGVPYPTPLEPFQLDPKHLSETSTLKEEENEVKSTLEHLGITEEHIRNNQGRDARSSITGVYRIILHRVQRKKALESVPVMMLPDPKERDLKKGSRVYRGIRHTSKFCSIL

PIM1 = PIM1 (Homo sapiens, UniProt P11309); test: SelectScreen kinase profiling, ZLYTE; format: biochemical; settings: PIM1, 10 µM
PRKCD (PKC delta) = PRKCD (PKC delta) (Homo sapiens, UniProt Q05655); test: SelectScreen kinase profiling, ZLYTE; format: biochemical
AMPK A1/B1/G1 = AMPK A1/B1/G1 (Homo sapiens, UniProt Q13131); test: SelectScreen kinase profiling, ZLYTE; format: biochemical; settings: AMPK A1/B1/G1, 10 µM
MYLK2 (skMLCK) = MYLK2 (skMLCK) (Homo sapiens, UniProt Q9H1R3); test: SelectScreen kinase profiling, ZLYTE; format: biochemical
EPHA6 = EPHA6 (Homo sapiens, UniProt Q9UF33); test: SelectScreen kinase profiling, LanthaScreen binding; settings: EPHA6, 10 µM
MAP2K1 (MEK1) = MAP2K1 (MEK1) (Homo sapiens, UniProt Q02750); test: as above
P450 2B6 = P450 2B6 (Homo sapiens, UniProt P20813)
P450 1A2 = P450 1A2 (Homo sapiens, UniProt P05177); test: SelectScreen P450 Vivid biochemical assay; settings: 10000nM; substrate EOMCC
LIMK2 = LIMK2 (Homo sapiens, UniProt P53671); test: SelectScreen kinase profiling, LanthaScreen binding; settings: LIMK2, 10 µM
MAP4K5 (KHS1) = MAP4K5 (KHS1) (Homo sapiens, UniProt Q9Y4K4); test: SelectScreen kinase profiling, ZLYTE; format: biochemical
PRKACG (PRKAC gamma) = PRKACG (PRKAC gamma) (Homo sapiens, UniProt P22612); test: SelectScreen kinase profiling, LanthaScreen binding
FGFR3 V555M = FGFR3 V555M (Homo sapiens, UniProt P22607, V555M); test: SelectScreen kinase profiling, ZLYTE; format: biochemical
MERTK (cMER) A708S = MERTK (cMER) A708S (Homo sapiens, UniProt Q12866, A708S); test: SelectScreen kinase profiling, LanthaScreen binding
CDC7/DBF4 = CDC7/DBF4 (Homo sapiens, UniProt O00311); test: as above; settings: CDC7/DBF4, 10 µM
CDC7/DBF4, sequence (O00311 whole entry): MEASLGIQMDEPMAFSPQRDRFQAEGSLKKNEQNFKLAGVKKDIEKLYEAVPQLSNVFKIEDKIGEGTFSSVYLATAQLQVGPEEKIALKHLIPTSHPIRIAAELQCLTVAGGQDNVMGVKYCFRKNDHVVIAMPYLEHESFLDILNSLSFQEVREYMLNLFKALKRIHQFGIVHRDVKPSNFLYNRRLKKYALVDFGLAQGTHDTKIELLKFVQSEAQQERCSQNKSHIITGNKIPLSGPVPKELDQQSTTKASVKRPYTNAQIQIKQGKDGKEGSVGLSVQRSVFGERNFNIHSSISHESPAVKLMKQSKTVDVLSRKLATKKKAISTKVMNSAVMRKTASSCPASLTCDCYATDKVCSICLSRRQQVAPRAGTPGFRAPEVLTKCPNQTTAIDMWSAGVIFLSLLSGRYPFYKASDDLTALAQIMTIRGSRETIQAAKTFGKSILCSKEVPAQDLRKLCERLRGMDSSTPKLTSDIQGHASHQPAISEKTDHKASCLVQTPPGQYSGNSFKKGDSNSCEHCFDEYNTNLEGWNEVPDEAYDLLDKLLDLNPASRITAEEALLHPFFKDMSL
CDC7/DBF4, sequence (Q9UBU7 whole entry partner): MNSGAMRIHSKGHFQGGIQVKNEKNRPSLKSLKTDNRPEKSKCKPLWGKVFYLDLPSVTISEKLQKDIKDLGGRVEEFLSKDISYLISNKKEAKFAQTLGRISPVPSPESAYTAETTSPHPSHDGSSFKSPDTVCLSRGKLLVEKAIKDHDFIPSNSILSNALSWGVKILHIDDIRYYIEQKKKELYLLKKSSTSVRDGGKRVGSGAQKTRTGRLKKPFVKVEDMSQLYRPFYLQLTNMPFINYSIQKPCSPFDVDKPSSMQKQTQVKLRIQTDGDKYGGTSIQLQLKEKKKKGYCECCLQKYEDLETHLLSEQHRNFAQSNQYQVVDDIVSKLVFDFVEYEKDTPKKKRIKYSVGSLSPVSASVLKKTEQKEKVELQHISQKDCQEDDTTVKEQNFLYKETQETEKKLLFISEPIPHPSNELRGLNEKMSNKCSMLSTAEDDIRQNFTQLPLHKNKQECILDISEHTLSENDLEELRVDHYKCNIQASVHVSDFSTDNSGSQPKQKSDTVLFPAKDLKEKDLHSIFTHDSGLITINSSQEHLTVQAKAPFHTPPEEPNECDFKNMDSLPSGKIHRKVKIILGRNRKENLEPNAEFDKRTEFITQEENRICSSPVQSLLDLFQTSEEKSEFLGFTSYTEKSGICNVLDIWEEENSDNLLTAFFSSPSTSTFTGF

PHKG2 = PHKG2 (Homo sapiens, UniProt P15735); test: SelectScreen kinase profiling, ZLYTE; format: biochemical; settings: PHKG2, 10 µM
[1] = target: PIK3CA E545K/PIK3R1 (p110 alpha E545K/p85 alpha) (Homo sapiens, UniProt P42336, E545K); test: SelectScreen kinase profiling, Adapta; format: biochemical; settings: PIK3CA E545K/PIK3R1, 10 µM
ITK = ITK (Homo sapiens, UniProt Q08881); test: SelectScreen kinase profiling, ZLYTE; format: biochemical
GSK3A (GSK3 alpha) = GSK3A (GSK3 alpha) (Homo sapiens, UniProt P49840); test: SelectScreen kinase profiling, ZLYTE; format: biochemical

O=C(c1ccc(/C=C/c2n[nH]c3ccccc23)cc1)N1CCNCC1 [KW-2449]
inhibition at 10 µM (STK38L (NDR2)): 59%
inhibition at 10 µM (VRK2): 32%
inhibition at 10 µM (ULK2): 56%
inhibition at 10 µM (STK33): 81%
inhibition at 10 µM (TAOK3 (JIK)): 25%
inhibition at 10 µM (ZAK): 77%
inhibition at 10 µM (TNK2 (ACK)): 71%
inhibition at 10 µM (STK32C (YANK3)): 62%
inhibition at 10 µM (WNK1): 2%
inhibition at 10 µM (STK39 (STLK3)): 38%
inhibition at 10 µM (WNK3): 7%
inhibition at 10 µM (TTK): 54%
inhibition at 10 µM (TGFBR2): 77%
inhibition at 10 µM (TLK2): 33%
inhibition at 10 µM (TEK (TIE2) R849W): -5%
inhibition at 10 µM (WNK2): 1%
inhibition at 10 µM (TEC): -9%
inhibition at 10 µM (MAP3K3 (MEKK3)): 82%
inhibition at 10 µM (MAP4K2 (GCK)): 101%
inhibition at 10 µM (RPS6KB2 (p70S6Kb)): 37%
inhibition at 10 µM (NIM1K): 79%
inhibition at 10 µM (PIM1): 42%
inhibition at 10 µM (PRKCD (PKC delta)): 25%
inhibition at 10 µM (AMPK A1/B1/G1): 97%
inhibition at 10 µM (MYLK2 (skMLCK)): 100%
inhibition at 10 µM (EPHA6): 73%
inhibition at 10 µM (MAP2K1 (MEK1)): 54%
IC50 (P450 2B6): 9.8 µM
% Inhibition 1A2 EOMCC (P450 1A2): -3%
inhibition at 10 µM (LIMK2): 24%
inhibition at 10 µM (MAP4K5 (KHS1)): 102%
inhibition at 10 µM (PRKACG (PRKAC gamma)): 18%
inhibition at 10 µM (FGFR3 V555M): 100%
inhibition at 10 µM (MERTK (cMER) A708S): 74%
inhibition at 10 µM (CDC7/DBF4): 16%
inhibition at 10 µM (PHKG2): 99%
inhibition at 10 µM [1]: -3%
inhibition at 10 µM (ITK): 99%
inhibition at 10 µM (GSK3A (GSK3 alpha)): 63%
